Literature values in US20090117146A1 (priority 2005, published 2009).

System: adenyl cyclase
Details: follicles of scalp hair

| Compound | effect on adenyl cyclase activity |
| --- | --- |
| C[C@]12CCC(=O)C[C@@H]1CC[C@@H]1[C@@H]2CC[C@]2(C)[C@@H](O)CC[C@@H]12 [dihydrotestosterone] | inhibits adenyl cyclase activity |
| C[C@]12CC[C@H]3[C@@H](CCC4=CC(=O)CC[C@@]43C)[C@@H]1CC[C@@H]2O [testosterone] | does not |
